Test results: patent US20100298141A1, “SUBSTITUTED PYRIDINE N-OXIDE HERBICIDES” (E. I. DU PONT DE NEMOURS AND COMPANY, priority 2007, published 2010)

Assays:
wheat = test: Test A pre-/postemergence greenhouse test; type: in vivo, Triticum aestivum; conditions: for Wheat plant response rating: 0 to 100 scale; for Plant response rating, Wheat: 0 to 100 scale where 0 is no effect and 100 is complete control
Summary of the method: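 Seeds sown in a loam soil–sand blend got a preemergence directed soil spray of compound in a non-phytotoxic solvent mixture containing surfactant. Postemergence sprays of the same formulation went at the same time onto plants 2–10 cm tall at the one- to two-leaf stage. Injury was scored visually against untreated controls after about ten days in the greenhouse.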

crabgrass = test: Test C pre-/postemergence test; type: in vivo, Digitaria sanguinalis; conditions: Preemergence; for Crabgrass, Large plant response rating: 62 g ai/ha, scale 0 to 100; for Plant response rating, Crabgrass, Large: 31 g ai/ha, scale 0 to 100 (0 no effect, 100 complete control); for Plant response rating (0 to 100), Crabgrass, Large: 250 g ai/ha
Summary of the method: (§1)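 Test chemicals were formulated with surfactant in a non-phytotoxic solvent and sprayed both on freshly planted seeds (preemergence) and on 1- to 4-leaf plants of 2–18 cm (postemergence). Flooded-paddy pots received compound directly into 3 cm of standing water, maintained for the test.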

Goosegrass = test: Test C pre-/postemergence test; type: in vivo, Eleusin indica; conditions: Preemergence; for Goosegrass plant response rating: 62 g ai/ha, scale 0 to 100; for Plant response rating, Goosegrass: 31 g ai/ha, scale 0 to 100 (0 no effect, 100 complete control); for Plant response rating (0 to 100), Goosegrass: 250 g ai/ha
Summary of the method: as §1

umbrella sedge = test: Test C flooded paddy test; type: in vivo, Cyperus difformis; conditions: Flood
Summary of the method: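 Greenhouse pots flooded to 3 cm above soil at time of treatment received compound via the water, which stayed at that level.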

green foxtail = test: Test F preemergence test; type: in vivo, Setaria viridis; conditions: scale 0 to 100
Summary of the method: (§2)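 Preemergence application to planted seeds, or postemergence to sugarcane plants; compound in non-phytotoxic solvent mix plus surfactant. Greenhouse, 14-21 days. Visual rating vs. controls.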

kochia = test: Test F preemergence test; type: in vivo, Kochia scoparia; conditions: scale 0 to 100
Summary of the method: as §2

mustard = test: Test F preemergence test; type: in vivo, Brassica nigra; conditions: scale 0 to 100
Summary of the method: as §2

dallisgrass = test: Test F preemergence test; type: in vivo, Paspalum dilatatum; conditions: scale 0 to 100
Summary of the method: as §2

common groundsel = test: Test F preemergence test; type: in vivo, Senecio vulgaris; conditions: scale 0 to 100
Summary of the method: as §2

annual bluegrass = test: Test F preemergence test; type: in vivo, Poa annua; conditions: scale 0 to 100
Summary of the method: as §2

quackgrass = test: Test F preemergence test; type: in vivo, Elytrigia repens; conditions: scale 0 to 100
Summary of the method: as §2

common mallow = test: Test F preemergence test; type: in vivo, Malva sylvestris; conditions: scale 0 to 100
Summary of the method: as §2

[1] = Postemergence, 125 g ai/ha, 0 is no effect, 100 is complete control
[2] = Postemergence, 500 g ai/ha, 0 is no effect, 100 is complete control
[3] = Preemergence, 125 g ai/ha, 0 no effect, 100 complete control
[4] = 31 g ai/ha, scale 0 to 100 (0 no effect, 100 complete control)
[5] = 62 g ai/ha, scale 0 to 100, 0 no effect, 100 complete control, 13 to 15 days
[6] = 125 g ai/ha, scale 0 to 100, 0 no effect, 100 complete control, 13 to 15 days
[7] = 250 g ai/ha, scale 0 to 100, 0 no effect, 100 complete control, 13 to 15 days

## Cc1cc[n+]([O-])c(S(=O)(=O)C(Cl)c2c(C(F)(F)F)nn(C)c2Cl)c1 (racemic) [Compound 22]
wheat; [1]
  Wheat plant response rating: 0
wheat; [2]
  Wheat plant response rating: 40
wheat; [3]
  Wheat plant response rating: 20
wheat; Preemergence, 500 g ai/ha
  Plant response rating, Wheat: 50
crabgrass
  Crabgrass, Large plant response rating: 100
  Plant response rating, Crabgrass, Large: 98
  Plant response rating (0 to 100), Crabgrass, Large: 100
Goosegrass
  Goosegrass plant response rating: 100
  Plant response rating, Goosegrass: 100
  Plant response rating (0 to 100), Goosegrass: 100
Umbrella sedge; [4]
  Plant response rating, Sedge, Umbrella: 60
Umbrella sedge; [5]
  Plant response rating, Sedge, Umbrella: 85
Umbrella sedge; [6]
  Plant response rating, Sedge, Umbrella: 95
Umbrella sedge; [7]
  Plant response rating, Sedge, Umbrella: 95
Green foxtail; 62 g ai/ha, Preemergence
  Foxtail, Green plant response rating: 20
Green foxtail; 125 g ai/ha, preemergence
  Foxtail, Green plant response rating: 95
Green foxtail; Preemergence, 16 g ai/ha
  Plant response rating, Foxtail, Green: 0
Green foxtail; Preemergence, 31 g ai/ha
  Plant response rating, Foxtail, Green: 15
kochia; 62 g ai/ha, Preemergence
  Kochia plant response rating: 100
kochia; 125 g ai/ha, preemergence
  Kochia plant response rating: 98
kochia; Preemergence, 16 g ai/ha
  Plant response rating, Kochia: 98
kochia; Preemergence, 31 g ai/ha
  Plant response rating, Kochia: 100
mustard; 62 g ai/ha, Preemergence
  Black Mustard plant response rating: 50
mustard; 125 g ai/ha, preemergence
  Black Mustard plant response rating: 80
mustard; Preemergence, 16 g ai/ha
  Plant response rating, Black Mustard: 0
mustard; Preemergence, 31 g ai/ha
  Plant response rating, Black Mustard: 20
dallisgrass; 62 g ai/ha, Preemergence
  Dallisgrass plant response rating: 90
dallisgrass; 125 g ai/ha, preemergence
  Dallisgrass plant response rating: 100
dallisgrass; Preemergence, 16 g ai/ha
  Plant response rating, Dallisgrass: 0
dallisgrass; Preemergence, 31 g ai/ha
  Plant response rating, Dallisgrass: 20
Common groundsel; 62 g ai/ha, Preemergence
  Groundsel plant response rating: 50
Common groundsel; 125 g ai/ha, preemergence
  Groundsel plant response rating: 98
Common groundsel; Preemergence, 16 g ai/ha
  Plant response rating, Groundsel: 0
Common groundsel; Preemergence, 31 g ai/ha
  Plant response rating, Groundsel: 50
Annual bluegrass; 62 g ai/ha, Preemergence
  Bluegrass plant response rating: 30
Annual bluegrass; 125 g ai/ha, preemergence
  Bluegrass plant response rating: 50
Annual bluegrass; Preemergence, 16 g ai/ha
  Plant response rating, Bluegrass: 0
Annual bluegrass; Preemergence, 31 g ai/ha
  Plant response rating, Bluegrass: 0
quackgrass; 62 g ai/ha, Preemergence
  Quackgrass plant response rating: 20
quackgrass; 125 g ai/ha, preemergence
  Quackgrass plant response rating: 60
quackgrass; Preemergence, 16 g ai/ha
  Plant response rating, Quackgrass: 0
quackgrass; Preemergence, 31 g ai/ha
  Plant response rating, Quackgrass: 10
Common mallow; 62 g ai/ha, Preemergence
  Mallow plant response rating: 65
Common mallow; 125 g ai/ha, preemergence
  Mallow plant response rating: 65
Common mallow; Preemergence, 16 g ai/ha
  Plant response rating, Mallow: 0
Common mallow; Preemergence, 31 g ai/ha
  Plant response rating, Mallow: 0

## Cn1nc(C(F)(F)F)c(C[S+]([O-])c2cccc[n+]2[O-])c1OCC(F)(F)F (racemic) [Compound 28]
wheat; [1]
  Wheat plant response rating: 60
wheat; [2]
  Wheat plant response rating: 70
wheat; [3]
  Wheat plant response rating: 70
wheat; Preemergence, 500 g ai/ha
  Plant response rating, Wheat: 100
crabgrass
  Crabgrass, Large plant response rating: 100
  Plant response rating, Crabgrass, Large: 100
  Plant response rating (0 to 100), Crabgrass, Large: 100
Goosegrass
  Goosegrass plant response rating: 100
  Plant response rating, Goosegrass: 100
  Plant response rating (0 to 100), Goosegrass: 100
Umbrella sedge; [4]
  Plant response rating, Sedge, Umbrella: 75
Umbrella sedge; [5]
  Plant response rating, Sedge, Umbrella: 95
Umbrella sedge; [6]
  Plant response rating, Sedge, Umbrella: 100
Umbrella sedge; [7]
  Plant response rating, Sedge, Umbrella: 100
Green foxtail; 62 g ai/ha, Preemergence
  Foxtail, Green plant response rating: 100
Green foxtail; 125 g ai/ha, preemergence
  Foxtail, Green plant response rating: 100
Green foxtail; Preemergence, 16 g ai/ha
  Plant response rating, Foxtail, Green: 30
Green foxtail; Preemergence, 31 g ai/ha
  Plant response rating, Foxtail, Green: 80
kochia; 62 g ai/ha, Preemergence
  Kochia plant response rating: 100
kochia; 125 g ai/ha, preemergence
  Kochia plant response rating: 100
kochia; Preemergence, 16 g ai/ha
  Plant response rating, Kochia: 0
kochia; Preemergence, 31 g ai/ha
  Plant response rating, Kochia: 50
mustard; 62 g ai/ha, Preemergence
  Black Mustard plant response rating: 100
mustard; 125 g ai/ha, preemergence
  Black Mustard plant response rating: 100
mustard; Preemergence, 16 g ai/ha
  Plant response rating, Black Mustard: 80
mustard; Preemergence, 31 g ai/ha
  Plant response rating, Black Mustard: 100
dallisgrass; 62 g ai/ha, Preemergence
  Dallisgrass plant response rating: 100
dallisgrass; 125 g ai/ha, preemergence
  Dallisgrass plant response rating: 100
dallisgrass; Preemergence, 16 g ai/ha
  Plant response rating, Dallisgrass: 0
dallisgrass; Preemergence, 31 g ai/ha
  Plant response rating, Dallisgrass: 40
Common groundsel; 62 g ai/ha, Preemergence
  Groundsel plant response rating: 100
Common groundsel; 125 g ai/ha, preemergence
  Groundsel plant response rating: 100
Common groundsel; Preemergence, 16 g ai/ha
  Plant response rating, Groundsel: 90
Common groundsel; Preemergence, 31 g ai/ha
  Plant response rating, Groundsel: 100
Annual bluegrass; 62 g ai/ha, Preemergence
  Bluegrass plant response rating: 65
Annual bluegrass; 125 g ai/ha, preemergence
  Bluegrass plant response rating: 100
Annual bluegrass; Preemergence, 16 g ai/ha
  Plant response rating, Bluegrass: 0
Annual bluegrass; Preemergence, 31 g ai/ha
  Plant response rating, Bluegrass: 40
quackgrass; 62 g ai/ha, Preemergence
  Quackgrass plant response rating: 90
quackgrass; 125 g ai/ha, preemergence
  Quackgrass plant response rating: 95
quackgrass; Preemergence, 16 g ai/ha
  Plant response rating, Quackgrass: 0
quackgrass; Preemergence, 31 g ai/ha
  Plant response rating, Quackgrass: 50
Common mallow; 62 g ai/ha, Preemergence
  Mallow plant response rating: 100
Common mallow; 125 g ai/ha, preemergence
  Mallow plant response rating: 100
Common mallow; Preemergence, 16 g ai/ha
  Plant response rating, Mallow: 0
Common mallow; Preemergence, 31 g ai/ha
  Plant response rating, Mallow: 100
